{"source": "ChEMBL document CHEMBL1139035", "about": "“Evaluation of the antioxidant properties of diarylamines in the benzo[b]thiophene series by free radical scavenging activity and reducing power” (Bioorg Med Chem Lett, 2006)", "assay_type_in_all_cases": "functional", "key": {"[1]": {"system": "Radical scavenging activity", "assay": "DPPH radical scavenging activity at 0.125 g/L"}, "[2]": {"system": "Radical scavenging activity", "assay": "DPPH radical scavenging activity at 0.250 g/L"}, "[3]": {"system": "Radical scavenging activity", "assay": "DPPH radical scavenging activity at 0.0156 g/L"}, "[4]": {"system": "Radical scavenging activity", "assay": "DPPH radical scavenging activity at 0.0312 g/L"}, "[5]": {"system": "Radical scavenging activity", "assay": "DPPH radical scavenging activity at 0.0625 g/L"}}}
{"smiles": "COc1ccc(Nc2cc3sc(C)c(C)c3cc2C)cc1OC", "values": [{"measurement": "Activity", "setting": "[1]", "value": 75, "unit": "%"}, {"measurement": "Activity", "setting": "[2]", "value": 75.4, "unit": "%"}, {"measurement": "Activity", "setting": "[3]", "value": 49, "unit": "%"}, {"measurement": "Activity", "setting": "[4]", "value": 65.3, "unit": "%"}, {"measurement": "Activity", "setting": "[5]", "value": 74.6, "unit": "%"}]}
{"smiles": "COc1ccc(Nc2c(C(=O)O)sc3ccccc23)c(OC)c1", "values": [{"measurement": "Activity", "setting": "[1]", "value": 63, "unit": "%"}, {"measurement": "Activity", "setting": "[2]", "value": 84, "unit": "%"}, {"measurement": "Activity", "setting": "[3]", "value": 8.9, "unit": "%"}, {"measurement": "Activity", "setting": "[4]", "value": 30.7, "unit": "%"}, {"measurement": "Activity", "setting": "[5]", "value": 44.7, "unit": "%"}]}
{"smiles": "Fc1ccc(Nc2csc3ccccc23)cc1", "values": [{"measurement": "Activity", "setting": "[1]", "value": 83.4, "unit": "%"}, {"measurement": "Activity", "setting": "[2]", "value": 85, "unit": "%"}, {"measurement": "Activity", "setting": "[3]", "value": 26.8, "unit": "%"}, {"measurement": "Activity", "setting": "[4]", "value": 44.7, "unit": "%"}, {"measurement": "Activity", "setting": "[5]", "value": 67.7, "unit": "%"}]}
{"smiles": "CCOC(=O)c1sc2ccccc2c1Nc1ccc(OC)cc1OC", "values": [{"measurement": "Activity", "setting": "[1]", "value": 64.7, "unit": "%"}, {"measurement": "Activity", "setting": "[2]", "value": 74.8, "unit": "%"}, {"measurement": "Activity", "setting": "[3]", "value": 20.8, "unit": "%"}, {"measurement": "Activity", "setting": "[4]", "value": 34.8, "unit": "%"}, {"measurement": "Activity", "setting": "[5]", "value": 51.1, "unit": "%"}]}
{"smiles": "COc1ccc(Nc2cc3sc(C)c(C)c3cc2C)cc1", "values": [{"measurement": "Activity", "setting": "[1]", "value": 76.8, "unit": "%"}, {"measurement": "Activity", "setting": "[2]", "value": 77, "unit": "%"}, {"measurement": "Activity", "setting": "[3]", "value": 38.3, "unit": "%"}, {"measurement": "Activity", "setting": "[4]", "value": 68.5, "unit": "%"}, {"measurement": "Activity", "setting": "[5]", "value": 76.6, "unit": "%"}]}
{"smiles": "Cc1cc(C(C)(C)C)c(O)c(C(C)(C)C)c1", "values": [{"measurement": "Activity", "setting": "[1]", "value": 82.3, "unit": "%"}, {"measurement": "Activity", "setting": "[2]", "value": 83, "unit": "%"}, {"measurement": "Activity", "setting": "[3]", "value": 28, "unit": "%"}, {"measurement": "Activity", "setting": "[4]", "value": 38.3, "unit": "%"}, {"measurement": "Activity", "setting": "[5]", "value": 60, "unit": "%"}]}
{"smiles": "COc1ccc(O)c(C(C)(C)C)c1.COc1ccc(O)cc1C(C)(C)C", "values": [{"measurement": "Activity", "setting": "[1]", "value": 83, "unit": "%"}, {"measurement": "Activity", "setting": "[2]", "value": 84, "unit": "%"}, {"measurement": "Activity", "setting": "[3]", "value": 41.2, "unit": "%"}, {"measurement": "Activity", "setting": "[4]", "value": 63, "unit": "%"}, {"measurement": "Activity", "setting": "[5]", "value": 75.7, "unit": "%"}]}
{"smiles": "Cc1cc2c(C)c(C)sc2cc1Nc1ccccc1F", "values": [{"measurement": "Activity", "setting": "[1]", "value": 0.54, "unit": "%"}, {"measurement": "Activity", "setting": "[2]", "value": 1.21, "unit": "%"}, {"measurement": "Activity", "setting": "[3]", "value": 0, "unit": "%"}, {"measurement": "Activity", "setting": "[4]", "value": 0, "unit": "%"}, {"measurement": "Activity", "setting": "[5]", "value": 0.52, "unit": "%"}]}
{"smiles": "Cc1cc2c(C)c(C)sc2cc1Nc1ccc(F)cc1", "values": [{"measurement": "Activity", "setting": "[1]", "value": 0.4, "unit": "%"}, {"measurement": "Activity", "setting": "[2]", "value": 2.8, "unit": "%"}, {"measurement": "Activity", "setting": "[3]", "value": 0, "unit": "%"}, {"measurement": "Activity", "setting": "[4]", "value": 0, "unit": "%"}, {"measurement": "Activity", "setting": "[5]", "value": 0, "unit": "%"}]}
{"smiles": "CCOC(=O)c1sc2ccccc2c1Nc1ccc(F)cc1", "values": [{"measurement": "Activity", "setting": "[1]", "value": 0.86, "unit": "%"}, {"measurement": "Activity", "setting": "[2]", "value": 0.9, "unit": "%"}, {"measurement": "Activity", "setting": "[3]", "value": 0, "unit": "%"}, {"measurement": "Activity", "setting": "[4]", "value": 0.54, "unit": "%"}, {"measurement": "Activity", "setting": "[5]", "value": 0.72, "unit": "%"}]}
{"smiles": "CCOC(=O)c1sc2ccccc2c1Nc1ccc(OC)cc1", "values": [{"measurement": "Activity", "setting": "[1]", "value": 0.74, "unit": "%"}, {"measurement": "Activity", "setting": "[2]", "value": 0.78, "unit": "%"}, {"measurement": "Activity", "setting": "[3]", "value": 0, "unit": "%"}, {"measurement": "Activity", "setting": "[4]", "value": 0, "unit": "%"}, {"measurement": "Activity", "setting": "[5]", "value": 0.4, "unit": "%"}]}
